In ChEMBL document CHEMBL5136973, “Update on the Development of MNK Inhibitors as Therapeutic Agents” (J Med Chem, 2022):

What was measured:
[1] = target: T1, MAP kinase-interacting serine/threonine-protein kinase 1 (Homo sapiens, UniProt Q9BUB5); test: Inhibition of Mnk1 (unknown origin)
[2] = target: T2, MAP kinase-interacting serine/threonine-protein kinase 2 (Homo sapiens, UniProt Q9HBH9); test: Inhibition of Mnk2 (unknown origin)
Target sequence in this assay (Q9HBH9 whole entry): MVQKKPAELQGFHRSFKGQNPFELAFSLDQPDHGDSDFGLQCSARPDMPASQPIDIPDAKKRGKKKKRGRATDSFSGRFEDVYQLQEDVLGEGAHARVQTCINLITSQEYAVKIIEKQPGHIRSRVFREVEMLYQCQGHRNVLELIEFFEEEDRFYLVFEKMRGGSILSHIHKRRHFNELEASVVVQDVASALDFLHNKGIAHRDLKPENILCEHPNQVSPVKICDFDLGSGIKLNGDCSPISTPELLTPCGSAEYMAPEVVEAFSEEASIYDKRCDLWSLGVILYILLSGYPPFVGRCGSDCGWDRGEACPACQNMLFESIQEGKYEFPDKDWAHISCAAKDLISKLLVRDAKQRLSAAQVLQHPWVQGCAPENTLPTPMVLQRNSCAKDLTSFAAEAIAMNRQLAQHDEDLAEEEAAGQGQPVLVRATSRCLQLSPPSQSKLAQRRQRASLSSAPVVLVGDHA

[3] = target: T2, MAP kinase-interacting serine/threonine-protein kinase 2; test: Inhibition of FLAG-tagged Mnk2 (unknown origin) transfected into HEK293 cells incubated for 30 mins followed by ATP addition measured after 30 mins by Western blotting analysis; assay type: cell-based
Target sequence in this assay (Q9HBH9 whole entry): as above

[4] = target: T3, Tyrosine-protein kinase JAK3 (Homo sapiens, UniProt P52333); test: Inhibition of JAK3 (unknown origin)
T3 sequence (P52333 whole entry): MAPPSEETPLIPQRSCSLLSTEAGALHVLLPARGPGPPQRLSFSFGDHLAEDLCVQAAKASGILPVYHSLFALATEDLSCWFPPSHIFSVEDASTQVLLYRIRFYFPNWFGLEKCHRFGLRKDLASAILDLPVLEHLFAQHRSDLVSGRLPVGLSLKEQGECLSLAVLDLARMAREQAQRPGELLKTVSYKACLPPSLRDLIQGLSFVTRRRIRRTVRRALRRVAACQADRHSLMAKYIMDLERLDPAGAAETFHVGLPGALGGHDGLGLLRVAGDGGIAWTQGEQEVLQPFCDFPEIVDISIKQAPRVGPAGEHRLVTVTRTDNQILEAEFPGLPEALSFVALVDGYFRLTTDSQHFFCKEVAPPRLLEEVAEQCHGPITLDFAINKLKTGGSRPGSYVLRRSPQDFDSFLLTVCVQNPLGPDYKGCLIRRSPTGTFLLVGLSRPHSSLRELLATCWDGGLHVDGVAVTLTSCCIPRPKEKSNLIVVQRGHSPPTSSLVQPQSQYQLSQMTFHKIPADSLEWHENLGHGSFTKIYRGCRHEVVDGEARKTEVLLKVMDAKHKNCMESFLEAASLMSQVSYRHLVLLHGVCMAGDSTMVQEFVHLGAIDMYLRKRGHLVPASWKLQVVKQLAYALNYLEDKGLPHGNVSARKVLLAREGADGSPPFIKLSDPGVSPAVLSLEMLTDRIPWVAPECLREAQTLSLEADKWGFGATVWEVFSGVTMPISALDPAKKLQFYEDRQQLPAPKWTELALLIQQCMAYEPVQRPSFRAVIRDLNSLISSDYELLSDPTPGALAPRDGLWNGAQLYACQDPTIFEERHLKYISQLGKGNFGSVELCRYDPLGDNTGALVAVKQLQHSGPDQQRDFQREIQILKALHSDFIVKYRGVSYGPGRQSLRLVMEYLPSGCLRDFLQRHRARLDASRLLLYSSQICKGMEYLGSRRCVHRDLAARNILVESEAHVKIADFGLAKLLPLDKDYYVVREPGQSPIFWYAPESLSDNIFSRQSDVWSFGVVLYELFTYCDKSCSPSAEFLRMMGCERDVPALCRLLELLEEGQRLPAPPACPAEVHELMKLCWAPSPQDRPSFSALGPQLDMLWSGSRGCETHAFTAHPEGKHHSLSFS

[5] = target: Tyrosine-protein kinase BTK (Homo sapiens, UniProt Q06187); test: Inhibition of FLAG-tagged BTK (unknown origin) transfected into HEK293T cells incubated for 30 mins followed by ATP addition measured after 20 mins by Western blotting analysis; assay type: cell-based, HEK293
[6] = target: T1, MAP kinase-interacting serine/threonine-protein kinase 1; test: Inhibition of FLAG-tagged Mnk1 (unknown origin) transfected into HEK293 cells incubated for 30 mins followed by ATP addition measured after 30 mins by Western blotting analysis; assay type: cell-based
[7] = target: T2, MAP kinase-interacting serine/threonine-protein kinase 2; test: Inhibition of Mnk2 (unknown origin) by ADP-Glo assay
Target sequence in this assay (Q9HBH9 whole entry): as the sequence (Q9HBH9 whole entry) above

[8] = target: T1, MAP kinase-interacting serine/threonine-protein kinase 1; test: Inhibition of Mnk1 (unknown origin) by ADP-Glo assay
[9] = target: T1, MAP kinase-interacting serine/threonine-protein kinase 1; test: Binding affinity to Mnk1 (unknown origin)
[10] = target: T2, MAP kinase-interacting serine/threonine-protein kinase 2; test: Binding affinity to Mnk2 (unknown origin)
Target sequence in this assay (Q9HBH9 whole entry): as the sequence (Q9HBH9 whole entry) above

[11] = system: MV4-11; test: Growth inhibition of human MV4-11 cells measured after 72 hrs; assay type: functional
[12] = target: T2, MAP kinase-interacting serine/threonine-protein kinase 2; test: Inhibition of MNK2 (unknown origin) at 123 nM
Target sequence in this assay (Q9HBH9 whole entry, looked up): as the sequence (Q9HBH9 whole entry) above

[13] = target: T1, MAP kinase-interacting serine/threonine-protein kinase 1; test: Inhibition of Mnk1 (unknown origin) using eIF4E-derived (D 202 TATKSGSTTKNR 214) peptide as substrate incubated for 90 mins by IMAP TR-FRET assay
[14] = target: T2, MAP kinase-interacting serine/threonine-protein kinase 2; test: Inhibition of His-tagged Mnk2 (unknown origin) using eIF4E-derived (D 202 TATKSGSTTKNR 214) peptide as substrate incubated for 90 mins by IMAP TR-FRET assay
Target sequence in this assay (Q9HBH9 whole entry): as the sequence (Q9HBH9 whole entry) above

[15] = system: MV4-11; test: Induction of cell cycle arrest in human MV4-11 cells assessed as increase in sub G1/G2 DNA content at 20 uM (reference value: 64%); assay type: functional
[16] = Oral bioavailability in male RH:Foxn1 nude rat; assay type: ADME, organism-based; conditions: in vivo
[17] = Oral bioavailability in female NMRI-nu/nu mouse; assay type: ADME, organism-based; conditions: in vivo
[18] = Antitumor activity against human Lu7462 patient-derived NSCLC cells xenografted in female NMRI-nu/nu mouse assessed as T/C ratio at 200 mg/kg, po, qd for 94 days; assay type: functional; conditions: time 94 day
[19] = Intermediate elimination half life in female NMRI-nu/nu mouse; assay type: ADME; conditions: in vivo, read-out: beta t1/2 (converted)
[20] = Volume of distribution at steady state in female NMRI-nu/nu mouse; assay type: ADME; conditions: in vivo, read-out: Vdss
[21] = Clearance in male RH:Foxn1 nude rat; assay type: ADME; conditions: in vivo
[22] = Volume of distribution at steady state in male RH:Foxn1 nude rat; assay type: ADME; conditions: in vivo, read-out: Vdss
[23] = Intermediate elimination half life in male RH:Foxn1 nude rat; assay type: ADME; conditions: in vivo, read-out: beta t1/2 (converted)
[24] = Clearance in female NMRI-nu/nu mouse; assay type: ADME; conditions: in vivo
[25] = target: T1, MAP kinase-interacting serine/threonine-protein kinase 1; test: Inhibition of inactive form of MNK1 (unknown origin)
[26] = system: MV4-11; test: Growth inhibition of human MV4-11 cells incubated for 72 hrs by multilabel plate reader method; assay type: functional
[27] = target: T2, MAP kinase-interacting serine/threonine-protein kinase 2; test: Binding affinity to His-tagged Mnk2 (unknown origin) using D 202 TATKSGSTTKNR 214 as substrate by TR-FRET assay
Target sequence in this assay (Q9HBH9 whole entry): as the sequence (Q9HBH9 whole entry) above

[28] = Growth inhibition of human Acute myeloid leukemic cells incubated for 72 hrs by multilabel plate reader method; assay type: functional; conditions: Acute myeloid leukemic cell
[29] = system: PC-3; test: Antiproliferative activity against human PC-3 cells; assay type: functional
[30] = system: SK-OV-3; test: Antiproliferative activity against human SK-OV-3 cells; assay type: functional
[31] = system: A2780; test: Antiproliferative activity against human A2780 cells; assay type: functional
[32] = system: MOLM-13; test: Antiproliferative activity against human MOLM-13 cells; assay type: functional

T1 sequence (Q9BUB5 whole entry): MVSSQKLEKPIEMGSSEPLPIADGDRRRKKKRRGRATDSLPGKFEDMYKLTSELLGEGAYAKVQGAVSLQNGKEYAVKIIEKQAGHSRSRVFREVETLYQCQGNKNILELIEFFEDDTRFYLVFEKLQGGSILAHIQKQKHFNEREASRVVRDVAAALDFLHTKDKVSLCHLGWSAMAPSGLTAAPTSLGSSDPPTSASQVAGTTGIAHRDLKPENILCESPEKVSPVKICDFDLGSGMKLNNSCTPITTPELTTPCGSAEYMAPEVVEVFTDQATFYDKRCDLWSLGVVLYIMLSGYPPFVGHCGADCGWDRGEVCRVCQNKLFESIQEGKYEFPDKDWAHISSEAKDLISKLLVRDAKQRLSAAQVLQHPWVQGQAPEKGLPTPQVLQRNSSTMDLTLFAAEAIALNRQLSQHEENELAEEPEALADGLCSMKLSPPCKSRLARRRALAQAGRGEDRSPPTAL
Tyrosine-protein kinase BTK, sequence (Q06187 whole entry): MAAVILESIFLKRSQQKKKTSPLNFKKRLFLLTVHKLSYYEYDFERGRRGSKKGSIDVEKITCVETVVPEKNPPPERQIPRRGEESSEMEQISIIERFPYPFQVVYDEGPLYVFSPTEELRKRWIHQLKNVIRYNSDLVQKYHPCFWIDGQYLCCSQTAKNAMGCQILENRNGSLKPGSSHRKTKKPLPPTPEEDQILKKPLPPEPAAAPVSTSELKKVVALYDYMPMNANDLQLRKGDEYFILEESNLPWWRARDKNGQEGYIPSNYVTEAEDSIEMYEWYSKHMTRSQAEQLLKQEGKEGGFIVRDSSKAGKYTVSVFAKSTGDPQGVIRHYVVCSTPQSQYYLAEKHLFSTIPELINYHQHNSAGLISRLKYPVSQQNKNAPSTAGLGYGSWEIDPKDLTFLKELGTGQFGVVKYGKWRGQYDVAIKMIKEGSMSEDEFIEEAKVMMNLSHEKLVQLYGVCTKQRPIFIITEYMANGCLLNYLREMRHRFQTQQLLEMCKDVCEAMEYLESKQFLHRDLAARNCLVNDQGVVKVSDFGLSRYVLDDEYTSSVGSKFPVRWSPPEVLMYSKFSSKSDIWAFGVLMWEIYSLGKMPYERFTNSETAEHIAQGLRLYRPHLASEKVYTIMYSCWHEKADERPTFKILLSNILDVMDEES

Cn1ccc2ncnc(Nc3ccc(F)cc3O[C@@H]3CCCOC3)c21
IC50 ([1]; read-out: pIC50 (converted)): 63.1 nM
IC50 [2]: 31.6 nM

CC(C)Oc1cc(F)ccc1Nc1ncnc2sc(C(=O)NCC3CCNCC3)nc12
IC50 ([1]; read-out: pIC50 (converted)): 50.1 nM
IC50 [2]: 50.1 nM

C=CC(=O)Nc1cc(-n2c(=O)ccc3cnc4ccc(-c5cn[nH]c5)cc4c32)ccc1C
IC50 [3]: 26 nM
IC50 [4]: 55.7 nM
IC50 [5]: 9.4 nM
IC50 [6]: 107 nM

O=C(NCC1CCNCC1)c1nc2c(N3CCc4cc(Cl)ccc43)ncnc2s1
IC50 ([1]; read-out: pIC50 (converted)): 3.16 nM
IC50 [2]: 3.16 nM

CN(Cc1ccon1)Cc1cc(-c2ccnc3cc(Cl)ccc23)ccc1O
IC50 [7]: 2600 nM
IC50 [8]: 4700 nM

CO[C@@H]1COC[C@@H]1Oc1cc(F)ccc1Nc1ncnc2cc(N=S(C)(C)=O)cc(C)c12
IC50 [1]: 80 nM

CC1(C)CN(c2ncnc3sc(C(=O)NCC4CCNCC4)nc23)c2ccccc21
IC50 ([1]; read-out: pIC50 (converted)): 3.16 nM
IC50 [2]: 2.51 nM

COc1ncc(C)cc1Nc1ncnc2[nH]ccc12
Ki [9]: 740 nM
Ki [10]: 1320 nM
GI50 [11]: 4640 nM

COc1cc(N=S(C)(=O)C(C)(C)C)cc2ncnc(Nc3ccc(F)cc3O[C@H]3COC[C@H]3O)c12 (stereo partly drawn)
IC50 [1]: 329 nM

Cc1ccc(C(=O)Nc2ccc(CN3CCN(C)CC3)c(C(F)(F)F)c2)cc1C#Cc1cnc2cccnn12
inhibition [12]: 32%

CN(C)CCCNC(=O)c1cc2ncnc(N3CCc4cc(F)ccc43)c2n1C
IC50 ([1]; read-out: pIC50 (converted)): 12.6 nM
IC50 [2]: 12.6 nM

CC(C)Oc1cc(F)ccc1Nc1ncnc2cc(C(=O)NCCCN(C)C)n(C)c12
IC50 ([1]; read-out: pIC50 (converted)): 50.1 nM
IC50 [2]: 39.8 nM

CN(C)CCCNC(=O)c1nc2c(N3CC(C)(C)c4ccccc43)ncnc2s1
IC50 ([1]; read-out: pIC50 (converted)): 6.31 nM
IC50 [2]: 3.98 nM

CO[C@@H]1COC[C@@H]1Oc1cc(F)ccc1Nc1ncnc2cc(N=S3(=O)CCCC3)cc(Cl)c12
IC50 [1]: 45 nM

Cc1c(C(=O)O)sc2ncnc(Nc3ccc(F)cc3OC(CF)CF)c12
IC50 [13]: 147000 nM
IC50 [14]: 50000 nM

O=C(NCC1CCNCC1)c1nc2c(N3CCc4cc(F)ccc43)ncnc2s1
IC50 ([1]; read-out: pIC50 (converted)): 5.01 nM
IC50 [2]: 3.98 nM

Nc1cccc2c1cnn2-c1ncnc2[nH]ccc12
Activity [15]: 92%

C[C@H](CN)Oc1ccc2ncc(-c3cc4ccccc4o3)n2n1
bioavailability [16]: 78%
bioavailability [17]: 71%
T/C [18]: 0.33
half-life [19]: 1.2 h
Vd [20]: 6 L/kg
clearance [21]: 6.83 mL/min/kg
Vd [22]: 0.87 L/kg
half-life [23]: 1.2 h
clearance [24]: 39 mL/min/kg

CNC(=O)c1nc2c(Nc3ccc(F)cc3OC(C)C)ncnc2s1
IC50 ([1]; read-out: pIC50 (converted)): 50.1 nM
IC50 [2]: 31.6 nM

CC(C)Oc1cc(F)ccc1Nc1ncnc2sc(C(=O)NCCN3CCNCC3)nc12
IC50 ([1]; read-out: pIC50 (converted)): 50.1 nM
IC50 [2]: 31.6 nM

CC(C)Oc1cc(C#N)ccc1Nc1ncnc2ccn(C)c12
IC50 ([1]; read-out: pIC50 (converted)): 50.1 nM
IC50 [2]: 25.1 nM

CN(C)CCCNC(=O)c1nc2c(N3CCc4ccccc43)ncnc2s1
IC50 ([1]; read-out: pIC50 (converted)): 10 nM
IC50 [2]: 7.94 nM

COc1cc(N=S2(=O)CCC2)cc2ncnc(Nc3cccnc3O[C@H]3COC[C@H]3O)c12
IC50 [1]: 104 nM

CN1CCC(C(=O)Nc2ncc(-c3ccccc3)s2)CC1
IC50 [25]: 21 nM

CN(C)CCCNC(=O)c1nc2c(N3CCc4cc(F)ccc43)ncnc2s1
IC50 ([1]; read-out: pIC50 (converted)): 2.51 nM
IC50 [2]: 2 nM

Cc1c(-c2ccnc(Nc3ccccc3OC(F)F)n2)sc(=O)n1C
GI50 [26]: 780 nM
Ki [27]: 120 nM
GI50 [28]: 880 nM

Fc1ccc(Nc2ncnc3[nH]ccc23)nc1
Ki [9]: 1080 nM
Ki [10]: 430 nM
GI50 [11]: 8190 nM

Fc1ccc2c(c1)CCN2c1ncnc2cc[nH]c12
IC50 ([1]; read-out: pIC50 (converted)): 39.8 nM
IC50 [2]: 31.6 nM

Cc1ncc(C(=O)Nc2ccc(CN3CCN(C)CC3)c(C(F)(F)F)c2)cc1C#Cc1cnc2cccnn12
inhibition [12]: 51%

O=S1(=Nc2cc(Cl)c3c(Nc4ccc(F)cc4O[C@H]4COC[C@@H]4O)ncnc3c2)CCC1
IC50 [1]: 18 nM

Cn1ccc2ncnc(Nc3ccc(F)cc3OC(CF)CF)c21
IC50 ([1]; read-out: pIC50 (converted)): 158 nM
IC50 [2]: 50.1 nM

Cn1ccc2ncnc(Nc3ccc(F)cc3OC3CCCC3)c21
IC50 ([1]; read-out: pIC50 (converted)): 126 nM
IC50 [2]: 31.6 nM

CC(C)Oc1cc(F)ccc1Nc1ncnc2cc(C(=O)NCC3CCNCC3)n(C)c12
IC50 ([1]; read-out: pIC50 (converted)): 39.8 nM
IC50 [2]: 39.8 nM

O=C1NC2(CCCCC2)n2c1c(Cl)cc(Nc1ccncn1)c2=O
GI50 [29]: < 10000 nM
GI50 [30]: < 10000 nM
GI50 [31]: < 10000 nM
GI50 [32]: < 10000 nM
